In publication PMC9139979, “Features of ZED1227: The First-In-Class Tissue Transglutaminase Inhibitor Undergoing Clinical Evaluation for the Treatment of Celiac Disease” (Cells, 2022):

Columns and labels:
[1] = target: T1, hTG1 (Homo sapiens, UniProt P22735); experiment: Fluorescent transamidation assay (DCC-assay), hTG1; type: biochemical
T1 construct: purchased Zedira T035
T1 sequence (P22735 1-817): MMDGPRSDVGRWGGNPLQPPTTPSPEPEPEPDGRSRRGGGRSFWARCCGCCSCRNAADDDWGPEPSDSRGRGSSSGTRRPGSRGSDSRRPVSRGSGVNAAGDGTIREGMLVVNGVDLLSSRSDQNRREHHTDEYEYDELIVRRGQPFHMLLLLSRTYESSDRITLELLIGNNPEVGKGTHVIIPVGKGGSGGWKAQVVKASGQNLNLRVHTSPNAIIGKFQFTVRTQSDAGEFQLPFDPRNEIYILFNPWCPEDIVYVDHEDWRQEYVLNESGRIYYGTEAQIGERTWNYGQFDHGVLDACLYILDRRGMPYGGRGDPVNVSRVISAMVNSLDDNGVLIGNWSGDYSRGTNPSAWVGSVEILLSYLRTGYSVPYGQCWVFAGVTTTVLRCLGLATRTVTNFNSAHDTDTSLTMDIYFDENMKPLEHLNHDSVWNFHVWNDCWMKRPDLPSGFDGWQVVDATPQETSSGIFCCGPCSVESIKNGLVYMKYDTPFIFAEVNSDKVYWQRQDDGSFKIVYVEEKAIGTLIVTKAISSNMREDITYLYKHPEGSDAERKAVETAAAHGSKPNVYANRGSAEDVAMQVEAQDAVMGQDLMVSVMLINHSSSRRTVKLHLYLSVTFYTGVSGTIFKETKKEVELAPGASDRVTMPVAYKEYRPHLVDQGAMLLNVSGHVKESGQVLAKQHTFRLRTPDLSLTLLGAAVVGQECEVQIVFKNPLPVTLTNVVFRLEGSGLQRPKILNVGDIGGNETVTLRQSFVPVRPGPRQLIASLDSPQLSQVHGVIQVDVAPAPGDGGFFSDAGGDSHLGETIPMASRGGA
Description: (§1) Inhibition data were determined using the fluorescent transamidation assay (dansylcadaverine incorporation into glutamine-donor substrate N,N-dimethyl casein, DCC-assay). Briefly, to 15 μL of ZED1227 solution (dissolved and serial diluted in 2% (v/v) DMSO/assay buffer), 285 μL assay buffer [47.5 mM tris(hydroxymethyl)aminomethane, 9.5 mM CaCl2, 9.5 mM glutathione, 2.4% (v/v) glycerol, 190 mM NaCl, pH 8.0] containing dansylcadaverine (15.9 μM), N,N-dimethyl casein (3.8 μM) and the indicated recombinant transglutaminase enzyme [0.95 μg/mL hTG1 (T035), 0.81 μg/mL hTG2 (T022), 0.83 μg/mL hTG6 (T021), all from Zedira] were added, mixed and the kinetic measurement started immediately. […]
(§2) Fluorescence emission was continuously monitored for 30 min at λem = 500 nm (λex = 330 nm) and 37 °C using a CLARIOstar fluorescence plate reader (BMG Labtech, Ortenberg, Germany). […] The respective IC50 (and IC90 for TG2) values were calculated by non-linear regression using the MARS software package (BMG Labtech). […]
(§3) To facilitate comparability during lead structure optimization and to roughly estimate concentrations needed at the target site, the apparent IC50 values (calculated by four-parameter non-linear fit by MARS software) for irreversible inhibitors are more instructive and are therefore reported. […]

[2] = target: T2, hTG6 (Homo sapiens, UniProt O95932); experiment: Fluorescent transamidation assay (DCC-assay), hTG6; type: biochemical
T2 construct: purchased Zedira T021
T2 sequence (O95932 1-706): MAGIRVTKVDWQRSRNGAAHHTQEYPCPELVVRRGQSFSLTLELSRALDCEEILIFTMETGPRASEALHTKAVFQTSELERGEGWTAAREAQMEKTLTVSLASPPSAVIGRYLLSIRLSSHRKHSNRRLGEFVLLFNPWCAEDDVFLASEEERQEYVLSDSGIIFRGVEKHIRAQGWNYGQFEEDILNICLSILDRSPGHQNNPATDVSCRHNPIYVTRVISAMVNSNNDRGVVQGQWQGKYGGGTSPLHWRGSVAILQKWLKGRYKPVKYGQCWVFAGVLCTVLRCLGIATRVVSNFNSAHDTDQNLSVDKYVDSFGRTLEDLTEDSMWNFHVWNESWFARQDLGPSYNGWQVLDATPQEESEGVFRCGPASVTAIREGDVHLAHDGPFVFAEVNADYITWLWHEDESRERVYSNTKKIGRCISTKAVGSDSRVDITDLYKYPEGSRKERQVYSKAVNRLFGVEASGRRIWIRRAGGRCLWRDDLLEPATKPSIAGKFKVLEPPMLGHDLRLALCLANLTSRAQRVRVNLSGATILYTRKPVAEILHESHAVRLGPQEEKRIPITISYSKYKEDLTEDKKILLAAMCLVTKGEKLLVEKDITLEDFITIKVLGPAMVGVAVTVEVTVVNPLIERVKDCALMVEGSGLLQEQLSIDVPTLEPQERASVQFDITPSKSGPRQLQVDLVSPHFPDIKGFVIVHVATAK
Description: as §1, §2, §3

SMILES: CCC(CC)CNC(=O)Cn1cccc(NC(=O)[C@H](CC/C=C/C(=O)OC)NC(=O)c2cncn2C)c1=O [ZED1227, (S,E)-Methyl 7-(1-(2-(2-ethylbutylamino)-2-oxoethyl)-2-oxo-1,2-dihydropyridin-3-ylamino)-6-(1-methyl-1H-imidazole-5-carboxamido)-7-oxohept-2-enoate]
- Selectivity hTG1 versus hTG2 ([1]; ratio of app. IC50 values): 469 fold
- IC50 ([1]; recombinant, transamidation assay, read-out: App. IC50 hTG1): 24.9 µM
- Selectivity hTG6 versus hTG2 ([2]; ratio of app. IC50 values): 122 fold
- IC50 ([2]; recombinant, transamidation assay, read-out: App. IC50 hTG6): 6.44 µM
